“And” between values parts separate entries of the source, which are not always exact repeats. Equal values may be shown once.
How the values were obtained:
Assay in all cases: radiometric filter-binding kinase assay
AURKA (human) = AURKA (human) (UniProt O14965); conditions: compound 100.0 µM; ATP 5 µM
BRSK2 (human) = BRSK2 (human) (UniProt Q8IWQ3); conditions: compound 100.0 µM; ATP 50 µM
CDK2 CCNA2 (human) = CDK2 CCNA2 (human) (UniProt P20248+P24941); conditions: compound 100.0 µM; ATP 20 µM
CHEK1 (human) = CHEK1 (human) (UniProt O14757); conditions: compound 100.0 µM; ATP 20 µM
CHEK1 (human), sequence (O14757 whole entry, looked up): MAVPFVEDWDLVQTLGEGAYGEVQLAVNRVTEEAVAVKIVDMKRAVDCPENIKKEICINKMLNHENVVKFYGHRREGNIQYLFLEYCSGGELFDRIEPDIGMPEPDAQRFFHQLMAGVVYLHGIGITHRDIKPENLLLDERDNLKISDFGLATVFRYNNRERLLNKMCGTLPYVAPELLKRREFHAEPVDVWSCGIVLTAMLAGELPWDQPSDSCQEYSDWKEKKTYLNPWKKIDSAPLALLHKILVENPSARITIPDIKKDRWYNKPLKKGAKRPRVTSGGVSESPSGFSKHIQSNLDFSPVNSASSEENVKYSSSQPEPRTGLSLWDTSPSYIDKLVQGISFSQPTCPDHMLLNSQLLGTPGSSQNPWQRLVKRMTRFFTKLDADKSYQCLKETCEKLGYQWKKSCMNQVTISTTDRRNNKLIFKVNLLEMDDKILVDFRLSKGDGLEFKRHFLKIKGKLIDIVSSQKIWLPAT

CHEK2 (human) = CHEK2 (human) (UniProt O96017); conditions: compound 100.0 µM; ATP 20 µM
CSNK2A1 (human) = CSNK2A1 (human) (UniProt P68400); conditions: compound 100.0 µM; ATP 5 µM
DYRK1A (human) = DYRK1A (human) (UniProt Q13627); conditions: compound 100.0 µM; ATP 50 µM
DYRK2 (human) = DYRK2 (human) (UniProt Q92630); conditions: compound 100.0 µM; ATP 50 µM
DYRK3 (human) = DYRK3 (human) (UniProt O43781); conditions: compound 100.0 µM; ATP 5 µM
EPHB1 (human) = EPHB1 (human) (UniProt P54762); conditions: compound 100.0 µM; ATP 20 µM
ERBB4 (human) = ERBB4 (human) (UniProt Q15303); conditions: compound 100.0 µM; ATP 5 µM
ERBB4 (human), sequence (Q15303 whole entry, looked up): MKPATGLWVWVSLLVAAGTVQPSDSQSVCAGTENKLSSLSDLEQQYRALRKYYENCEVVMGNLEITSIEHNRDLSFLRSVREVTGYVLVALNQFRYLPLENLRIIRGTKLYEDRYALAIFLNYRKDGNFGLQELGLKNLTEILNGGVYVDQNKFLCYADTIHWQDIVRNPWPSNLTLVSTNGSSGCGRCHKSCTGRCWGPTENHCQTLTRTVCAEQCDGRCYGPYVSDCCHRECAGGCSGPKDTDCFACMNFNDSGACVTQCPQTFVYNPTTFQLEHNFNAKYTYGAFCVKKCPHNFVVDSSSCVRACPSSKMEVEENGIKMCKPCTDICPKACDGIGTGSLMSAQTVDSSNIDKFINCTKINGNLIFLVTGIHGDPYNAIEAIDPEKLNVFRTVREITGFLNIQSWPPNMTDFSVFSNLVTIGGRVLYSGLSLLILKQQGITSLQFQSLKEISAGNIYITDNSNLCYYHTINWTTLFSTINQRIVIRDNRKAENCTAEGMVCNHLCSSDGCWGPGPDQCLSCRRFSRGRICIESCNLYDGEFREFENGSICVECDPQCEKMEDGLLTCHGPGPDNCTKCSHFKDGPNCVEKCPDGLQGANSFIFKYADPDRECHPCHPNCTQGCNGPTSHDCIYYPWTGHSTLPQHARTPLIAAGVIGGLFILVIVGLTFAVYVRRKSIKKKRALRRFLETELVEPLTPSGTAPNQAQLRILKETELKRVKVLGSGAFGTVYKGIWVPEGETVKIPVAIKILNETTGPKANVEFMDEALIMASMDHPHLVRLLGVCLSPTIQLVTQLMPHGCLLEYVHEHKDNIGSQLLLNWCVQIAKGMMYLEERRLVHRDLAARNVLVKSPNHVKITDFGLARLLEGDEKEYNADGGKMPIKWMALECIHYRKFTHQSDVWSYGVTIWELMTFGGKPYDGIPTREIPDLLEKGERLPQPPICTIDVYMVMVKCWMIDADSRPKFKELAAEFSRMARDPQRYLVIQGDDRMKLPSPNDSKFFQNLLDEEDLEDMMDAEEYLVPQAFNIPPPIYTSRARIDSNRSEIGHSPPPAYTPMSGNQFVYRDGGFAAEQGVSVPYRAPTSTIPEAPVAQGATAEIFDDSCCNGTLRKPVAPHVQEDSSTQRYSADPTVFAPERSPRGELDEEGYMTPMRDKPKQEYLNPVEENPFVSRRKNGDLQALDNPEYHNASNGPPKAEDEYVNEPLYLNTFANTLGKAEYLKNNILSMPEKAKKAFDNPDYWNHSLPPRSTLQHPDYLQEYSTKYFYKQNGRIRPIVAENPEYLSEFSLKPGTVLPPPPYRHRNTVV

GCK (human) = GCK (human) (UniProt Q12851); conditions: compound 100.0 µM; ATP 20 µM
GSK3B (human) = GSK3B (human) (UniProt P49841); conditions: compound 100.0 µM; ATP 5 µM
IKBKB (human) = IKBKB (human) (UniProt O14920); conditions: compound 100.0 µM; ATP 5 µM
INSRR (human) = INSRR (human) (UniProt P14616); conditions: compound 100.0 µM; ATP 5 µM
LCK (mouse) = conditions: compound 100.0 µM; ATP 50 µM; accession and sequence are those of the human protein
MAP2K2 (human) = MAP2K2 (human) (UniProt P36507); conditions: compound 100.0 µM; ATP 5 µM
MAP2K2 (human), sequence (P36507 whole entry, looked up): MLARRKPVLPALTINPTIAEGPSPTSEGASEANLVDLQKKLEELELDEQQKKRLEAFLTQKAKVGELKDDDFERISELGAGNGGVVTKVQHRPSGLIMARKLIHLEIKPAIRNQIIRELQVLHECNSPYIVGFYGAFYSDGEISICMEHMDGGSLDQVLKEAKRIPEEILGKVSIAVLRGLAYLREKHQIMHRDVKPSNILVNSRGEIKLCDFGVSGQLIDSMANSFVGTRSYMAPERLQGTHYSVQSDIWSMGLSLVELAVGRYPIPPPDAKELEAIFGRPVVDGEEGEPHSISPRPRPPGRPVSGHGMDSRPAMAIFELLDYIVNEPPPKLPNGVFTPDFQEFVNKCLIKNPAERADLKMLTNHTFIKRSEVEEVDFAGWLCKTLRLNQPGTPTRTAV

MAP2K6 (human) = MAP2K6 (human) (UniProt P52564); conditions: compound 100.0 µM; ATP 50 µM
MAP3K1 (human) = MAP3K1 (human) (UniProt Q13233); conditions: compound 100.0 µM; ATP 50 µM
MAP3K5 (human) = MAP3K5 (human) (UniProt Q99683); conditions: compound 100.0 µM; ATP 50 µM
MAPK14 (human) = MAPK14 (human) (UniProt Q16539); conditions: compound 100.0 µM; ATP 50 µM
MAPK14 (human), sequence (Q16539 whole entry, looked up): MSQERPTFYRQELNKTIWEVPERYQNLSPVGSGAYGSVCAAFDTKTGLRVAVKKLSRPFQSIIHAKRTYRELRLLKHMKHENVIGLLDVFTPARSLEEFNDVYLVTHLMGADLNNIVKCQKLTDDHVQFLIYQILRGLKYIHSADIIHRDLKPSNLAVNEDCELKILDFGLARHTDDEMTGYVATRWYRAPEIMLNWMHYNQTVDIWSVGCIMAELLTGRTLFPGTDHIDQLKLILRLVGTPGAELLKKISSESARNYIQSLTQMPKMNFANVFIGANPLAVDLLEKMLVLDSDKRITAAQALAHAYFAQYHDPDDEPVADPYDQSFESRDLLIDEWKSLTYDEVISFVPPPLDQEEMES

MAPK15 (human) = MAPK15 (human) (UniProt Q8TD08); conditions: compound 100.0 µM; ATP 5 µM
MAPKAPK2 (human) = MAPKAPK2 (human) (UniProt P49137); conditions: compound 100.0 µM; ATP 20 µM
MKNK1 (human) = MKNK1 (human) (UniProt Q9BUB5); conditions: compound 100.0 µM; ATP 50 µM
MKNK1 (human), sequence (Q9BUB5 whole entry, looked up): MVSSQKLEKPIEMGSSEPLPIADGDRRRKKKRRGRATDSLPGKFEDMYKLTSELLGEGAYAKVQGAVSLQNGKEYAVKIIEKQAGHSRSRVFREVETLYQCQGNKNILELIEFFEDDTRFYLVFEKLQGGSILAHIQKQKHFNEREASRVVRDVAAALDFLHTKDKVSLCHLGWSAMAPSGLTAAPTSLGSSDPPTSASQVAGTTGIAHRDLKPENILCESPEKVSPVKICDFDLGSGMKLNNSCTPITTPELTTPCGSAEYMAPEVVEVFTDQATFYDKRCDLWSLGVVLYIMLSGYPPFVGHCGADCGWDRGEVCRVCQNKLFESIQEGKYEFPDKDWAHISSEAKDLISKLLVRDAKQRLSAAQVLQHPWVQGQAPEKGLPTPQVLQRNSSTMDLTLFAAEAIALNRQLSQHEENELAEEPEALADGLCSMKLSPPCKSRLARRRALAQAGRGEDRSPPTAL

NEK6 (human) = NEK6 (human) (UniProt Q9HC98); conditions: compound 100.0 µM; ATP 50 µM
[1] = tested on: PAK2 (human), Q13177 [T402E]; conditions: compound 100.0 µM; ATP 20 µM
PAK4 (human) = PAK4 (human) (UniProt O96013); conditions: compound 100.0 µM; ATP 5 µM
PAK6 (human) = PAK6 (human) (UniProt Q9NQU5); conditions: compound 100.0 µM; ATP 20 µM
PKN2 (human) = PKN2 (human) (UniProt Q16513); conditions: compound 100.0 µM; ATP 5 µM
[2] = target: PRKAA1 PRKAB2 PRKAG1 (human) (UniProt O43741+Q13131+P54619); conditions: compound 100.0 µM; ATP 20 µM
PRKACA (human) = PRKACA (human) (UniProt P17612); conditions: compound 100.0 µM; ATP 20 µM
PRKCZ (human) = PRKCZ (human) (UniProt Q05513); conditions: compound 100.0 µM; ATP 5 µM
ROCK2 (rat) = conditions: compound 100.0 µM; ATP 20 µM; accession and sequence are those of the human protein
RPS6KA3 KD1 KD2 (human) = RPS6KA3 KD1 KD2 (human) (UniProt P51812); conditions: compound 100.0 µM; ATP 50 µM
RPS6KA3 KD1 KD2 (human), sequence (P51812 whole entry, looked up): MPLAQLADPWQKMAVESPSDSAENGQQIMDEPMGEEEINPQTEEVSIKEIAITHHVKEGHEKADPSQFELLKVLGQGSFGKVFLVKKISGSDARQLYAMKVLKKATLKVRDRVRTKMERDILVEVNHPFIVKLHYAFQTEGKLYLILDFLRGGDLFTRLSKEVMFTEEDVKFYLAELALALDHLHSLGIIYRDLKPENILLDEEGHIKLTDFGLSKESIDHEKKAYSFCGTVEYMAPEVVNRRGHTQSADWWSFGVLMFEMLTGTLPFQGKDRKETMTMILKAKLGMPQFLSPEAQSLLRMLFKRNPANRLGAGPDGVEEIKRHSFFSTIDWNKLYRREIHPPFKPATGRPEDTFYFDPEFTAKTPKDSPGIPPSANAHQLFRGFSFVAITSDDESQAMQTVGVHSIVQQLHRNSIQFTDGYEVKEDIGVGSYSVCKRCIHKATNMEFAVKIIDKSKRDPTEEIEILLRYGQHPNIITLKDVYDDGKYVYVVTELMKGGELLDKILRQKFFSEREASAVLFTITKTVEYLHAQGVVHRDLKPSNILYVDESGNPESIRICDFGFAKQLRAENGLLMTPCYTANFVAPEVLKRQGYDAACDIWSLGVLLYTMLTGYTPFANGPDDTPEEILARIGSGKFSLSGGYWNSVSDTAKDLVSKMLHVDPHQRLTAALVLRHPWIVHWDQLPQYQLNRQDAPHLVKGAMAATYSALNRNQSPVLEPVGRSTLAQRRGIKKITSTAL

[3] = tested on: RPS6KB1 (human), P23443 [T412E]; conditions: compound 100.0 µM; ATP 20 µM
SRC (human) = SRC (human) (UniProt P12931); conditions: compound 100.0 µM; ATP 50 µM
SRC (human), sequence (P12931 whole entry, looked up): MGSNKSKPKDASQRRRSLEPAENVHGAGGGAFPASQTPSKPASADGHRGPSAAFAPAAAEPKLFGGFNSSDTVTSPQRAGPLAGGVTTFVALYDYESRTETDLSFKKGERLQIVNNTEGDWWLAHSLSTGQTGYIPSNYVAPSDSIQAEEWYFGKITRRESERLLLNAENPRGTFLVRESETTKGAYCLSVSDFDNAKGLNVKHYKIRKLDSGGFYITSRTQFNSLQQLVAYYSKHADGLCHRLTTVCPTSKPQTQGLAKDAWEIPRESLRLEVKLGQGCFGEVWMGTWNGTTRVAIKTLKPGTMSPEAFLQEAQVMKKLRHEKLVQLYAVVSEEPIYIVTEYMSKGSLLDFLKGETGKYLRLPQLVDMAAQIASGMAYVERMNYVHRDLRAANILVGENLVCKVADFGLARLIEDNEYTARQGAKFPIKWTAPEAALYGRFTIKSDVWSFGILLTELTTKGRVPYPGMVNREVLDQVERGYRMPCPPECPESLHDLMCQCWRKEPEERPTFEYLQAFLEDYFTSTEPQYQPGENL

TBK1 (human) = TBK1 (human) (UniProt Q9UHD2); conditions: compound 100.0 µM; ATP 50 µM
TBK1 (human), sequence (Q9UHD2 whole entry, looked up): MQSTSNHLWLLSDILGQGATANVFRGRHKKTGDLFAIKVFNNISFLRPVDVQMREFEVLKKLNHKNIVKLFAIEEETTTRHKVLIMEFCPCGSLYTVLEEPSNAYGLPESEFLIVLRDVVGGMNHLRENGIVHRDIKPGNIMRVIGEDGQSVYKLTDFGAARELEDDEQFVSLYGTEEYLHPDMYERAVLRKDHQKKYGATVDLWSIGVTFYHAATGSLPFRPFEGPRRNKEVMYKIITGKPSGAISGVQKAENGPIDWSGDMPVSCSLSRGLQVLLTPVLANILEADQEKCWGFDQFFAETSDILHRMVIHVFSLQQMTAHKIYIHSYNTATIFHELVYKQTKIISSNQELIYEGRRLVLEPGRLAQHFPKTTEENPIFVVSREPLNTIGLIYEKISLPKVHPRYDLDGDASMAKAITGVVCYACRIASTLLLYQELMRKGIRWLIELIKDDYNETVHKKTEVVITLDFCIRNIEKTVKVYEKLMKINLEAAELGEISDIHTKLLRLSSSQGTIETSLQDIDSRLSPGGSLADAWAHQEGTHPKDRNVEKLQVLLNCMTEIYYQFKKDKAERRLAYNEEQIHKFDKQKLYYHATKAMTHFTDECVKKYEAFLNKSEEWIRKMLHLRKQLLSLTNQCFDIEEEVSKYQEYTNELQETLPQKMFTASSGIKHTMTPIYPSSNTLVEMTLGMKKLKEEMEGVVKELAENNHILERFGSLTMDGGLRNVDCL

TTK (human) = TTK (human) (UniProt P33981); conditions: compound 100.0 µM; ATP 20 µM

## CC(C)(C)Nc1c(C2CC2)nc2[nH]cnn12
AURKA (human)
  inhibition: 16%
BRSK2 (human)
  inhibition: 26%
CDK2 CCNA2 (human)
  inhibition: 33%
CHEK1 (human)
  inhibition: 0%
CHEK2 (human)
  inhibition: 0%
CSNK2A1 (human)
  inhibition: 9%
DYRK1A (human)
  inhibition: 0%
DYRK2 (human)
  inhibition: 4%
DYRK3 (human)
  inhibition: 7%
EPHB1 (human)
  inhibition: 0%
ERBB4 (human)
  inhibition: 19%
GCK (human)
  inhibition: 8%
GSK3B (human)
  inhibition: 24%
IKBKB (human)
  inhibition: 11%
INSRR (human)
  inhibition: 0%
LCK (mouse)
  inhibition: 0%
MAP2K2 (human)
  inhibition: 0%
MAP2K6 (human)
  inhibition: 3%
MAP3K1 (human)
  inhibition: 0%
MAP3K5 (human)
  inhibition: 4%
MAPK14 (human)
  inhibition: 0%
MAPK15 (human)
  inhibition: 60%
MAPKAPK2 (human)
  inhibition: 0%
MKNK1 (human)
  inhibition: 0%
NEK6 (human)
  inhibition: 0%
[1]
  inhibition: 10%
PAK4 (human)
  inhibition: 0%
PAK6 (human)
  inhibition: 0%
PKN2 (human)
  inhibition: 17%
[2]
  inhibition: 5%
PRKACA (human)
  inhibition: 0% and 5%
PRKCZ (human)
  inhibition: 0%
ROCK2 (rat)
  inhibition: 2%
RPS6KA3 KD1 KD2 (human)
  inhibition: 13%
[3]
  inhibition: 0%
SRC (human)
  inhibition: 0%
TBK1 (human)
  inhibition: 1%
TTK (human)
  inhibition: 10%

## CC(C)(C)Nc1c(COCc2ccccc2)nc2[nH]cnn12
AURKA (human)
  inhibition: 5%
BRSK2 (human)
  inhibition: 22%
CDK2 CCNA2 (human)
  inhibition: 14%
CHEK1 (human)
  inhibition: 0%
CHEK2 (human)
  inhibition: 19%
CSNK2A1 (human)
  inhibition: 5%
DYRK1A (human)
  inhibition: 30%
DYRK2 (human)
  inhibition: 6%
DYRK3 (human)
  inhibition: 17%
EPHB1 (human)
  inhibition: 0%
ERBB4 (human)
  inhibition: 53%
GCK (human)
  inhibition: 0%
GSK3B (human)
  inhibition: 38%
IKBKB (human)
  inhibition: 9%
INSRR (human)
  inhibition: 4%
LCK (mouse)
  inhibition: 5%
MAP2K2 (human)
  inhibition: 11%
MAP2K6 (human)
  inhibition: 1%
MAP3K1 (human)
  inhibition: 0%
MAP3K5 (human)
  inhibition: 2%
MAPK14 (human)
  inhibition: 5%
MAPK15 (human)
  inhibition: 1%
MAPKAPK2 (human)
  inhibition: 2%
MKNK1 (human)
  inhibition: 0%
NEK6 (human)
  inhibition: 0%
[1]
  inhibition: 14%
PAK4 (human)
  inhibition: 0%
PAK6 (human)
  inhibition: 20%
PKN2 (human)
  inhibition: 16%
[2]
  inhibition: 18%
PRKACA (human)
  inhibition: 0% and 21%
PRKCZ (human)
  inhibition: 0%
ROCK2 (rat)
  inhibition: 0%
RPS6KA3 KD1 KD2 (human)
  inhibition: 48%
[3]
  inhibition: 0%
SRC (human)
  inhibition: 12%
TBK1 (human)
  inhibition: 9%
TTK (human)
  inhibition: 7%

## O=c1cc(-c2ccccc2F)nc2[nH]ccn12
AURKA (human)
  inhibition: 17%
BRSK2 (human)
  inhibition: 24%
CDK2 CCNA2 (human)
  inhibition: 21%
CHEK1 (human)
  inhibition: 4%
CHEK2 (human)
  inhibition: 19%
CSNK2A1 (human)
  inhibition: 20%
DYRK1A (human)
  inhibition: 31%
DYRK2 (human)
  inhibition: 37%
DYRK3 (human)
  inhibition: 30%
EPHB1 (human)
  inhibition: 20%
ERBB4 (human)
  inhibition: 48%
GCK (human)
  inhibition: 29%
GSK3B (human)
  inhibition: 44%
IKBKB (human)
  inhibition: 15%
INSRR (human)
  inhibition: 6%
LCK (mouse)
  inhibition: 23%
MAP2K2 (human)
  inhibition: 18%
MAP2K6 (human)
  inhibition: 0%
MAP3K1 (human)
  inhibition: 53%
MAP3K5 (human)
  inhibition: 8%
MAPK14 (human)
  inhibition: 21%
MAPK15 (human)
  inhibition: 18%
MAPKAPK2 (human)
  inhibition: 22%
MKNK1 (human)
  inhibition: 31%
NEK6 (human)
  inhibition: 7%
[1]
  inhibition: 0%
PAK4 (human)
  inhibition: 11%
PAK6 (human)
  inhibition: 3%
PKN2 (human)
  inhibition: 2%
[2]
  inhibition: 0%
PRKACA (human)
  inhibition: 0% and 11%
PRKCZ (human)
  inhibition: 0%
ROCK2 (rat)
  inhibition: 29%
RPS6KA3 KD1 KD2 (human)
  inhibition: 25%
[3]
  inhibition: 8%
SRC (human)
  inhibition: 11%
TBK1 (human)
  inhibition: 6%
TTK (human)
  inhibition: 11%

## O=C(Nc1cnc2[nH]ccn2c1=O)c1ccccc1
AURKA (human)
  inhibition: 6%
BRSK2 (human)
  inhibition: 27%
CDK2 CCNA2 (human)
  inhibition: 0%
CHEK1 (human)
  inhibition: 2%
CHEK2 (human)
  inhibition: 32%
CSNK2A1 (human)
  inhibition: 11%
DYRK1A (human)
  inhibition: 0%
DYRK2 (human)
  inhibition: 19%
DYRK3 (human)
  inhibition: 18%
EPHB1 (human)
  inhibition: 17%
ERBB4 (human)
  inhibition: 25%
GCK (human)
  inhibition: 6%
GSK3B (human)
  inhibition: 9%
IKBKB (human)
  inhibition: 0%
INSRR (human)
  inhibition: 11%
LCK (mouse)
  inhibition: 23%
MAP2K2 (human)
  inhibition: 0%
MAP2K6 (human)
  inhibition: 0%
MAP3K1 (human)
  inhibition: 3%
MAP3K5 (human)
  inhibition: 0%
MAPK14 (human)
  inhibition: 2%
MAPK15 (human)
  inhibition: 7%
MAPKAPK2 (human)
  inhibition: 29%
MKNK1 (human)
  inhibition: 0%
NEK6 (human)
  inhibition: 15%
[1]
  inhibition: 12%
PAK4 (human)
  inhibition: 20%
PAK6 (human)
  inhibition: 6%
PKN2 (human)
  inhibition: 0%
[2]
  inhibition: 0%
PRKACA (human)
  inhibition: 0% and 2%
PRKCZ (human)
  inhibition: 3%
ROCK2 (rat)
  inhibition: 11%
RPS6KA3 KD1 KD2 (human)
  inhibition: 10%
[3]
  inhibition: 4%
SRC (human)
  inhibition: 8%
TBK1 (human)
  inhibition: 14%
TTK (human)
  inhibition: 0%
